How the values were obtained:
Assay type in all cases: cell-based
IL-1β secretion = assay: Inhibition of IL-1β secretion in LPS stimulated peripheral blood mononuclear cells; conditions: PBMC; LPS stimulated human peripheral blood mononuclear cells, 18 hours, ELISA; read-out: The median inhibition concentration (IC50, nM) of IL-1β
Procedure: (§1) To study the effect of the compound of the present invention in vitro the inhibition of the IL-1β and TNF-α secretion was measured using the following procedure:
(§2) Cytokine production was measured in the media from lipopolysaccharide (LPS) stimulated peripheral blood mononuclear cells. The mononuclear cells were isolated from human peripheral blood by Lymphoprep® (Nycomed, Norway) fractionation and suspended in RPMI 1640 (growth medium) with foetal calv serum (FCS, 2%), at a concentration of 5×10^5 cells/ml. The cells were incubated in 24-well tissue culture plates in 1 ml aliquots. Test compounds were dissolved in dimethylsulfoxide (DMSO, 10 mM) and were diluted with the medium. Compounds were added to the cells for 30 minutes, then LPS ([…] final concentration) was added. The plates were incubated for 18 hours, and the concentration of IL-1β and TNF-α in the medium was determined by enzyme-linked immunosorbent assays. The median inhibitory concentrations (IC50) of the compounds were calculated.

TNF-α secretion = assay: Inhibition of TNF-α secretion in LPS stimulated peripheral blood mononuclear cells; conditions: PBMC; LPS stimulated human peripheral blood mononuclear cells, 18 hours, ELISA; read-out: The median inhibition concentration (IC50, nM) of TNF-α
Procedure: as §1, §2

[1] = tested on: Human polymorphonuclear (PMN) granulocytes; assay: Inhibition of PMN superoxide secretion (ferricytochrome C reduction, TNF-α primed, fMLP stimulated); conditions: fMLP 10^−7 M, read-out: The median inhibition concentration (IC50, nM) of PMN-superoxide
Procedure: The compounds of the present invention also show similar activities in the ability to inhibit PMN (polymorphonuclear) superoxide secretion which is also indicative of potentially useful anti-inflammatory drugs. The compounds were tested using the following procedure. Human polymorphonuclear (PMN) granulocytes were isolated from human blood by dextran sedimentation, Lymphoprep® fractionation, and hypotonic lysis of contaminating erythrocytes. Superoxide anion generation was measured as the superoxide dismutase inhabitable reduction of ferricytochrome C (Madhu, S. B. et al, Inflammation, 16, 241, (1992)). The cells were suspended in Hank's balanced salt solution, and incubated for 10 minutes at 37° C. with test compounds. The cells were primed by the addition of TNF-α (3 ng/ml final concentration) for 10 minutes, and then ferricytochrome C, (final concentration 750 μg/ml), bovine serum albumin (BSA, final concentration 1 mg/ml) and formyl-methionyl-leucyl-phenylalanine (fMLP, final concentration 10^−7 M) were added for 3 minutes. The cells were chilled on ice, and were spun down. The optical densities in the cell-free supernatant was measured in a spectrophotometer. The median inhibitory concentration (IC50) of the compounds was calculated.

SMILES | IC50 (IL-1β secretion) [nM] | IC50 (TNF-α secretion) [nM] | IC50 [1] [nM]
CCCCCCCC(=O)Nc1ccccc1Nc1ccc(C(=O)c2ccccc2C)c(Cl)c1 [Compound 102, 2′-[3-Chloro-4-(2-methylbenzoyl)-phenylamino]octananilide] | 6.3 | 6.3 | 5
Cc1ccccc1C(=O)c1ccc(Nc2ccccc2NC(=O)CCC(=O)O)cc1Cl [Compound 101, N-[2-[3-Chloro-4-(2-methylbenzoyl)-phenylamino]phenyl]-succinamic Acid] | 200 | 25 | 63
